Data published in US20060121607A1, “Compositions and methods for neural differentiation of embryonic stem cells” (priority 2002, published 2006).

How the values were obtained:
SSEA4 selected HESCs = conditions: 50 μM Proline, around 3 weeks suspension
Text: Essentially serum free embryoid bodies were generated from bulk passaged monolayer HESC colonies as described in Example 5, in the presence of the media set out below.

human ES cells = test: Comparison of basic media for TH+ cell formation in human embryoid bodies; type: cell-based; conditions: DMEM and 100 μM L-proline, absence of FGF2
Experimental: Embryoid bodies/neurospheres from human ES cells were grown without the use of MEDII conditioned media Media and supplements used were Hams DMEM/F12 (Gibco Cat # 11320-033), ITSS (Gibco Cat#17502-048) and N2 (Gibco Cat#41400-045).
The ability of basic media with supplements (DMEM+N2 or ITSS) to promote neural differentiation of hES cells was compared with medium that included F12: (DMEM:F12 (1:1)+N2 or ITSS).
Trypsinised Human ES cells were seeded at approximately 10 to 20 cells/μl of media into 10 ml of neurosphere media (DMEM:F12, 10 μg/ml heparin (SIGMA), 1/50 B27 (GIBCO), 1/100 pen/strep, 1/100 ITSS) in a T75 culture flask. 10 ng/ml FGF2 was optionally added but the culture medium was preferably mitogen-free (no FGF2). Cultures were maintained in the media for 9 days after which the embryoid bodies were optionally transferred to poly-L-ornithine/laminin plates and cultured in the same media for a further 6 days. The embryoid bodies so formed (EB^15), whether from adherent or suspension culture, were then triturated to near single cell form and used for either transplantation or for the formation of neurospheres/cell reaggregates.
Example 15 was repeated utilising human ES cells and a minimal media consisting of DMEM and 100 μM L-proline. The results were similar to those described in Example 5. […]

[1] = test system: sfEBM single cell suspension; test: Clonal derivation of colonies from dispersed sfEBM in suspension; type: cell-based, human; conditions: medium containing the factor alone
Experimental: sfEBMs were transferred to tissue culture dishes (4-well or 35 mm) and were rinsed with Ca^2+/Mg^2+ free PBS. After settling, the PBS was aspirated and 1 or 2 ml of 0.25% trypsin was added. sfEBMs were dispersed to a single cell suspension, with occasional doublets or triplets, by gentle trituration using a 1 ml pipette. The cell suspension was transferred to a 15 ml tube, diluted with 9 or 18 ml of medium and pelleted by centrifugation. The pellet was resuspended in DMEM/F12 supplemented with 1×N2 supplement, FGF-2 (4 ng/ml), 50% MEDII and added to agarose coated suspension dishes at low density (0.5-5 cells/μl). These cultures were not disturbed for 4-5 days, when small uniform colonies could be observed. Colonies could be harvested at approximately 10 days.
In an attempt to derive clones of essentially serum free embryoid bodies, trypsin was used to generate single cell suspensions from sfEBM cultures and low density cell suspensions, from 0-0.5-5 cells/μl, were incubated in suspension dishes. […] The synergistic activities of FGF2 and MEDII in the derivation of clonal sfEBMs was unexpected. […] The colonies produced were presumed to be clonal, and proliferated to as much as 0.2 mm in diameter within 10 days. The cloning efficiency was in the order of 4.5-6%.

O=C(O)[C@@H]1CCCN1 [L-proline]
appearance of sfEBPs with low cell death and distinct neural rosette structures (SSEA4 selected HESCs): noticeably enhanced | TH+ cells in EB^17 bodies (human ES cells): ~50%

FGF-2: fibroblast growth factor FGF-2
generation of clonal colonies [1]: No clonal colonies
